Target: T1, human gastrin (CCK2) receptors (Homo sapiens, UniProt P32239)
T1 construct: amplified by PCR (polymerase chain reaction) from the start codon to the stop codon; expressed in transfected cells
T1 sequence (P32239 1-447): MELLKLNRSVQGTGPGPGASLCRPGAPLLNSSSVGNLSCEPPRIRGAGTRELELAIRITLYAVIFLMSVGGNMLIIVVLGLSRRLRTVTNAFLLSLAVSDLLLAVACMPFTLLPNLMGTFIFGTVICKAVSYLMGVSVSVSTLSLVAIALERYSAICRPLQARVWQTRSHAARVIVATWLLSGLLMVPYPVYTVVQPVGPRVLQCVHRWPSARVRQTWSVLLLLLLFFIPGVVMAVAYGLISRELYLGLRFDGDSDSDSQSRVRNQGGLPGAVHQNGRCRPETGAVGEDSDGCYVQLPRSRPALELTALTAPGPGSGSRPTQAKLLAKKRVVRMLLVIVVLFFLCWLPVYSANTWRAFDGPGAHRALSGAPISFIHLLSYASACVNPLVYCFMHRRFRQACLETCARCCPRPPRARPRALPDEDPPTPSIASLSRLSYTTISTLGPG
Assay: Displacement of [125I]-BH-CCK-8S from human CCK2 receptors cloned into NIH3T3 cells (membranes)
Assay type: binding
Conditions: hCCK2 receptor, NIH3T3 clone 7 membranes, [125I]-BH-CCK-8S 200 pM, 150 min at 21° C.; ± s.e. mean; read-out: CCK2 (pKI) (converted)
Procedure: A number of compounds were tested at human gastrin (CCK2) receptors which have been cloned into an NIH3T3 cell line as follows:
Stable clones expressing hCCK2R were screened for their ability to specifically bind [^125I]-BH-CCK-8S in tissue concentration curve studies (0.3×10^4-1×10^6 cells per tube) using the assay conditions described below. […] In addition there was a direct linear correlation between the amount of specific bound label and the cell concentration up to and including 2.5×10^5 cells per ml. Based on the above, this clone was chosen for expansion and fall binding characterisation.
Cultured clone 7 cells were stored as frozen pellets at −70° C. until required. Cell pellets were thawed in CCK2 assay buffer ((mM): 10 Hepes; 130 NaCl; 5 MgCl2; 4.7 KCl; 1 EGTA (pH7.2 at 21° C.) with 0.125 g Bacitracin added to each litre), and homogenised using a Polytron (4×1 s). The resulting membrane preparation was centrifuged at 39,800 g for 15 min at 4° C. Each cell pellet was re-suspended in fresh buffer and re-centriflged as above. The final pellet was re-suspended by homogenisation (Teflon-in-glass), to the appropriate membrane concentration.
For saturation and competition studies, the cell membranes prepared as in step d (3×10^4 cells per 400 μl) were incubated for 150 min at 21° C. in a final volume of 0.5 ml with CCK2 assay buffer containing [^125I]-BH-CCK-8S (50 μl; 200 pM). Total and non-specific binding of [^125I]-BH-CCK-8S were defined, respectively using 50 μl of buffer and 50 μl of 10 μM YM022. The assays were terminated by rapid filtration through pre-soaked Whatman GF/B filters which were washed (3×3 ml) with ice-cold 50 mM Tris HCl (pH7.4 @ 4° C.). Filters were transferred to plastic gamma counter vials and bound radioactivity determined by counting (1 min) in a Clini-gamma counter.
The binding of [^125I]-BH-CCK-8S to the hCCK2 receptor isoform was saturable. […] Saturation data were analysed using the curve-fitting programmes, Radlig and Ligand.
A number of compounds of the invention as well as reference compounds were tested for their ability to displace [^125I]-BH-CCK-8S from the receptors prepared as above. Briefly, dilution and addition of test compounds, radioligand and cell membranes were performed using a Beckman Biomek 2000. The ability of compounds to inhibit the specific binding of to hCCK2 receptors was determined in triplicate over a range of concentrations at half-log intervals. Total and non-specific binding was determined for each compound. Each compound was tested in a minimum of three experiments. Competition data were fitted to the Hill equation using Graph-pad Prism software to obtain estimates of the IC50 (mid-point location parameter) and nH (mid-point slope parameter). Dissociation constants (KI) were determined using the Cheng & Prusoff equation (1973) to correct for the receptor occupancy by the radioligand. All compounds were dissolved in DMF to give a stock concentration of either 1 or 10 mM and subsequent dilutions were made in assay buffer.

| SMILES | Ki [nM] |
| --- | --- |
| O=C(O)CCc1cccc(NC(=O)CN2NC(C3CCCCC3)c3ccccc3N(CC(=O)C3CCCC3)C2=O)c1 (racemic) [Example 6, (+/−)-3-(3-(2-[5-Cyclohexyl-1-(2-cyclopenlyl-2-oxo-ethyl)-2-oxo-1,2,4,5tetrahydro-3H-1,3,4-benzotriazepin-3-yl]-acetylamino}-phenyl)-propionic acid] | 0.759 |
| O=C(O)Cc1cccc(NC(=O)CN2NC(C3CCCCC3)c3ccccc3N(CC(=O)C3CCCC3)C2=O)c1 (racemic) [Example 5, (+/−)-(3-{2-[5-Cyclohexyl-1-(2-cyclopentyl-2-oxo-ethyl)-2-oxo-1,2,4,5-tetrahydro-3H-1,3,4-benzotriazepin-3-yl]-acetylamino}-phenyl)-acetic acid] | 79.4 |
| CNc1cccc(NC(=O)CN2NC(C3CCCCC3)c3ccccc3N(CC(=O)C(C)(C)C)C2=O)c1 (racemic) [Example 2, (+/−)-2-[5-Cyclohexyl-1-(3,3-dimethyl-2-oxo-butyl)-2-oxo-1,2,4,5-tetrahydro-3H-1,3,4-benzotriazepin-3-yl]-N-(3-methylamino-phenyl)-acetamide] | 16.2 |
| Cc1cccc(NC(=O)CN2NC(C3CCCCC3)c3ccccc3N(CC(=O)C(C)(C)C)C2=O)c1 (racemic) [Example 3, (+/−)-2-[5-Cyclohexyl-1-(3,3-dimethyl-2-oxo-butyl)-2-oxo-1,2,4,5-tetrahydro-3H-3H-1,3,4-benzotriazepin-3-yl]-N-m-tolyl-acetamide] | 44.7 |
| O=C(O)Cc1cccc(NC(=O)CN2NC(C3CCCCC3)c3ccccc3N(CC(=O)C3CCCCC3)C2=O)c1 (racemic) [Example 10, (+/−)-(3-{2-[5-Cyclohexyl-1-(2-cyclohexyl-2-oxo-ethyl)-2-oxo-1,2,4,5-tetrahydro-3H-1,3,4-benzotriazepin-3-yl]-acetylamino}-phenyl)-acetic acid] | 0.363 |
| CC(C)(C)C(=O)CN1C(=O)N(CC(=O)Nc2cccc(C(=O)O)c2)NC(C2CCCCC2)c2ccccc21 (racemic) [Example 1, (+/−)-3-{2-[5-Cyclohexyl-1-(3,3-dimethyl-2-oxo-butyl)-2-oxo-1,2,4,5-tetrahydro-3H-1,3,4-benzotriazepin-3-yl]-acetylamino)-benzoic acid] | 17.8 |
| CNc1cccc(NC(=O)CN2NC(C3CCCCC3)c3ccccc3N(CC(=O)C3CCCC3)C2=O)c1 (racemic) [Example 7, (+/−)-2-[5-Cyclohexyl-1-(2-cyclopentyl-2-oxo-ethyl)-2-oxo-1,2,4,5-tetrahydro-3H-1,3,4-benzotriazepin-3-yl]-N-(3-methylamino-phenyl)-acetamide] | 2.63 |
| O=C(O)Cc1cccc(NC(=O)CN2NC(C3CCCCC3)c3ccccc3N(CC(=O)C3CCCCC3)C2=O)c1 (single isomer, unassigned; (-)) [Example 14, (−)-(3-{2-[5-Cyclohexyl-1-(2-cyclohexyl-2-oxo-ethyl)-2-oxo-1,2,4,5-tetrahydro-3H-1,3,4-benzotriazepin-3-yl]-acetylamino}-phenyl)-acetic acid] | 0.1 |
| CC1(C(=O)CN2C(=O)N(CC(=O)Nc3cccc(C(=O)O)c3)NC(C3CCCCC3)c3ccccc32)CCCCC1 (racemic) [Example 8, (+/−)-3-(2-{5-Cyclohexyl-1-[2-(1-methyl-cyclohexyl)-2-oxo-ethyl]-2-oxo-1,2,4,5-tetrahydro-3H-1,3,4-benzotriazepin-3-yl}-acetylamino)-benizoic acid] | 7.76 |
| O=C(CN1NC(C2CCCCC2)c2ccccc2N(CC(=O)C2CCCC2)C1=O)Nc1cccc(-c2nc(=O)o[nH]2)c1 (racemic) [Example 16, (+/−)-2-[5-Cyclohexyl-1-(2-cyclopentyl-2-oxo-ethyl)-2-oxo-1,2,4,5-tetrahydro-3H-1,3,4-benzotriazepin-3-yl]-N-[3-(5-oxo-2,5-dihydro-[1,2,4]oxadiazol-3-yl)-phenyl]-acetamide] | 0.0794 |
| O=C(CN1NC(C2CCCCC2)c2ccccc2N(CC(=O)C2CCCC2)C1=O)Nc1cccc(-c2nnn[nH]2)c1 (racemic) [Example 15, (+/−)2-[5-Cyclohexyl-1-(2-cyclopentyl-2-oxo-ethyl)-2-oxo-1,2,4,5-tetrahydro-3H-1,3,4-benzotriazepin-3-yl]-N-[3-(2H-tetrazol-5-yl)-phenyl]-acetamide] | 0.501 |

Further lines, results first:

| Ki [nM] | SMILES |
| --- | --- |
| 1.58 | O=C(CN1NC(C2CCCCC2)c2ccccc2N(CC(=O)C2CCCC2)C1=O)Nc1cccc(C(=O)O)c1 (single isomer, unassigned; (-)) [Example 12, (−)-3-{2-[5-Cyclohexyl-1-(2-cyclopentyl-2-oxo-ethyl)-2-oxo-1,2,4,5-tetrahydro-3H-1,3,4-benzotriazepin-3-yl]-acetylamino}-benzoic acid] |
| 12.6 | O=C(CN1NC(C2CCCCC2)c2ccccc2N(CC(=O)C2CCCC2)C1=O)Nc1cccc(C(=O)O)c1 (single isomer, unassigned; (+)) [Example 11, (+)-3-{2-[5-Cyclohexyl-1-(2-cyclopentyl-2-oxo-ethyl)-2-oxo-1,2,4,5-tetrahydro-3H-1,3,4-benzotriazepin-3-yl]-acetylamino}-benzoic acid] |
| 3.98 | O=C(O)Cc1cccc(NC(=O)CN2NC(C3CCCCC3)c3ccccc3N(CC(=O)C3CCCCC3)C2=O)c1 (single isomer, unassigned; (+)) [Example 13, (+)-(3-{2-[5-Cyclohexyl-1-(2-cyclohexyl-2-oxo-ethyl)-2-oxo-1,2,4,5-tetrahydro-3H-1,3,4-benzotriazepin-3-yl]-acetylamino}-phenyl)-acetic acid] |
| 2.24 | O=C(CN1NC(C2CCCCC2)c2ccccc2N(CC(=O)C2CCCCC2)C1=O)Nc1cccc(C(=O)O)c1 (racemic) [Example 9, (+/−)-3-{2-[5-Cyclohexyl-1-(2-cyclohexyl-2-oxo-ethyl)-2-oxo-1,2,4,5-tetrahydro-3H-1,3,4-benzotriazepin-3-yl]-acetylamino}-benzoic acid] |
| 1.48 | O=C(CN1NC(C2CCCCC2)c2ccccc2N(CC(=O)C2CCCC2)C1=O)Nc1cccc(C(=O)O)c1 (racemic) [Example 4, (+/−)-3-{2-[5-Cyclohexyl-1-(2-cyclopentyl-2-oxo-ethyl)-2-oxo-1,2,4,5-tetrahydro-3H-1,3,4-benzotriazepin-3-yl]-acetylamino}-benzoic acid] |
